The results in this text go back to paper PMC8010461, “The acyltransferase PMAT1 malonylates brassinolide glucoside” (The Journal of Biological Chemistry, 2021).

In data set [1] the target is T1, UGT73C5 (Arabidopsis thaliana, UniProt Q9ZQ94).
T1 construct: recombinant GST-tagged UGT73C5
T1 sequence (Q9ZQ94 1-495): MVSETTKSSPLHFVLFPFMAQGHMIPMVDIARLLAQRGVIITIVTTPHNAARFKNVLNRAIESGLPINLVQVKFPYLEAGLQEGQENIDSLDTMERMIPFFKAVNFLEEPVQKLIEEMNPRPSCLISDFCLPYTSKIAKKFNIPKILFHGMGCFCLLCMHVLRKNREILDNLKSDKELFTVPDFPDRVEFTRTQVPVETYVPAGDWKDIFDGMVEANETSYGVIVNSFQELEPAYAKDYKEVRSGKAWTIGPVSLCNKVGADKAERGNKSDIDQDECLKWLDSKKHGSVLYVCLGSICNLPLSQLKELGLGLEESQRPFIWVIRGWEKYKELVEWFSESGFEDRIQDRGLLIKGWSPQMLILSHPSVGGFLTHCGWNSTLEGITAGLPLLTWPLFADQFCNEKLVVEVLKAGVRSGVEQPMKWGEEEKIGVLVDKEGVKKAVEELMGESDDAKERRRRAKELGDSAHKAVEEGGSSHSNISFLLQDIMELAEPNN
Briefly: preparative in vitro glucosylation, product purified by HPLC. The data set is classed as biochemical. As to conditions: co-substrate UDP-glucose; glucosylation at C-23.

For data set [2], the target named is T1, UGT73C5. Briefly: in vitro glucosylation, product confirmed by HR-MS and HR-MS/MS. As to conditions: reference compound synthesis; glucosylation at C-23. The format is biochemical.
Substrate in data set [3]: CC(C)[C@@H](C)[C@@H](O[C@@H]1O[C@H](CO)[C@@H](O)[C@H](O)[C@H]1O)[C@H](O)[C@@H](C)[C@H]1CC[C@H]2[C@@H]3COC(=O)[C@H]4C[C@H](O)[C@H](O)C[C@]4(C)[C@H]3CC[C@]12C
In words: purified protein. The format is biochemical, Arabidopsis thaliana. As to conditions: co-substrate malonyl-CoA 2.5 mM, 50 mM sodium phosphate pH 8.0, 30 °C.

On to `CC(C)[C@@H](C)[C@@H](O)[C@H](O)[C@@H](C)[C@H]1CC[C@H]2[C@@H]3COC(=O)[C@H]4C[C@H](O)[C@H](O)C[C@]4(C)[C@H]3CC[C@]12C` [24-epiBL], for which the “preparative in vitro glucosylation, product purified by HPLC” value in data set [1] is 24-epiBL (epiBL) as an acceptor were carried out, and the resulting epiBL-23-O-Glc was purified.
In the case of `CC(C)[C@H](C)[C@@H](O)[C@H](O)[C@@H](C)[C@H]1CC[C@H]2[C@@H]3COC(=O)[C@H]4C[C@H](O)[C@H](O)C[C@]4(C)[C@H]3CC[C@]12C` [brassinolide], in data set [2], the “in vitro glucosylation, product confirmed by HR-MS and HR-MS/MS” value is “BL-23-O-MalGlc as analytical reference, which were generated in vitro with recombinant UGT73C5 and PMAT1”.

B1: PMAT1 (Arabidopsis thaliana) (protein)
chain: MVNEEMESSLKVIDVARVTPSNSDSSESLTLPLTFFDLLWYKLHAVERVIFYKLTDASRPFFDSVIVPNLKTSLSSSLSHYLPLAGKLVWEPLDPKPKIVYTPNDAVSFTVAESNADFSRLTGKEPFPTTELYPLVPELHVSDDSASAVSFQVTLFPNQGFCISVNAHHAVLDGKTTTNFLKSWARTCKNQDSFLPQDLIPVYDRTVIKDPMDLDTKILNAWHRVAKVFTGGKEPENPKSLKLLWSPEIGPDVFRYTLNLTREDIQKLRERLKKESSSSSVSSSPKELRLSTFVIVYSYALTCLIKARGGDPSRPVGYGFAVDCRSLMVPPVPSSYFGNCVSACFKMSLTAETFMSEEGFLAAARMVSDSVEALDENVALKIPEILEGFTTLSPGTQVLSVAGSTRFGVYGLDFGWGRPEKVVVVSIDQGEAISFAESRDGSGGVELGFSLKKHEMDVLVDLLHKGLEN
notes: full ORF, GST fusion (pGEX-4T-2-PMAT1), E. coli BL21, glutathione Sepharose purified; GST tag kept
Regarding B1, the Km (as a rule, the substrate concentration at which the rate is half of its maximum) in data set [3] (20 min) was determined as 235 µM.

B2: At5MAT (Arabidopsis thaliana) (protein)
chain: MVNFNSAVNILEVVQVSPPSSNSLTLPLTYFDLGWLKLHPVDRVLFYHVPELTRSSLISKLKSSLSATLLHYLPLAGRLVWDSIKTKPSIVYSPDDKDAVYLTVAESNGDLSHLSGDEPRPATEFHSLVPELPVSDESARVLAVQVTFFPNQGFSLGVTAHHAVLDGKTTAMFLKAWAHNCKQEQEALPHDLVPSLDRIIVQDPTGLETKLLNRWISASNNKPSLKLFPSKIIGSDILRVTYRLTREDIKKLRERVETESHAKQLRLSTFVITYAYVITCMVKMRGGDPTRFVCVGFASDFRSRLNPPLPPTFFGNCIVGSGDFDVKAEPILEEGEGKGFITAVETLTGWVNGLCPENIEKNMLLPFEAFKRMEPGRQMISVAGSTRLGIYGSDFGWGKPVKVEIVTIDKDASVSLSESGDGSGGVEVGVCLKKDDVERFGSLFSIGLE
notes: full ORF, GST fusion (pGEX-4T-2-At5MAT), E. coli BL21, glutathione Sepharose purified; GST tag kept
For the molecule B2, the Km in data set [3] (240 min) stood at 71 µM.
